Experimental data: patent publication US20230414715A1, “TRAIL COMPOUNDS FOR REDUCING CANCER TREAMENT SIDE EFFECTS” (BROWN UNIVERSITY, priority 2022, published 2023)

How the values were obtained:
C57B1/6 mice = assay: Radiation pneumonitis after whole-thorax x-ray irradiation, H&E of lung, wild-type mice; type: in vivo, mouse
Experimental: However, before embarking on the planned experiment, we decided to perform a preliminary, short-term treatment feasibility experiment to ensure some mouse survival after 20 Gy of thoracic irradiation (FIG. 1B). The preliminary experiment was performed with WT and DR5-null mice that were irradiated with 20 Gy, and this was followed by either weekly doses of TIC10/ONC201 (100 mg/kg for total of two doses) or twice a week doses of TLY012 (10 mg/kg for total of four doses) for 2 weeks.
(§1) Animal studies were carried out at Brown University facilities with approval from Brown University IACUC. C57B1/6 mice (Taconic), mice with bi-allelic loss of TRAIL Death Receptor-(DR5-/-) in a C57B1/6 background, and mice with bi-allelic loss of TRAIL (TRAIL -/-) in a C57B1/6 background were given a single whole-thorax x-ray (Philips RT250) irradiation dose of 20 Gy with shielding of other organs. 8-15-week-old male and female mice of each genotype were used. […] Treatment was continued for two weeks, where TLY012 was administered twice a week and ONC201 was administered once a week. For each genetic background, two mice received a control PO, two mice received TLY012 IP, and two mice received ONC201 PO. Mice were weighed twice a week, and 13 days post-irradiation all mice were euthanized. Organs were harvested from the mice and 600 μL of blood was collected via cardiac puncture for serum cytokine analysis. Organs were preserved in 10% formalin then embedded in paraffin and sectioned at a distance of 5 μm. […] TRAIL-/- female mice were also subjected to a survival study with a single whole-thorax radiation doses of 15 Gy or 18 Gy treated with the same regimen of TLY012 or control (n=2/radiation dose/treatment) (FIG. 3B). In order to determine the lethal dose of radiation for C57B1/6 mice, female C57B1/6 mice were treated with a single dose of whole-thorax irradiation of 25 Gy in a survival study where they were treated with either TLY012 or remained control (n=6/treatment) (FIG. 3C).

TRAIL-/- mice = assay: Radiation pneumonitis after whole-thorax x-ray irradiation, H&E of lung, TRAIL-null mice; type: in vivo, mouse; settings: TRAIL-/- male or female mice, 20 Gy thoracic irradiation, two weeks treatment, FIG. 2A, B
Experimental: as §1, with “In order to determine the lethal dose of radiation for C57B1/6 mice, female C57B1/6 mice were treated with a single dose of whole-thorax irradiation of 25 Gy in a survival study where they were treated with either TLY012 or remained control (n=6/treatment) (FIG. 3C).” left out

serum cytokines = assay: Serum cytokine analysis (Luminex) of irradiated mice; type: in vivo, mouse; settings: treated versus control
Experimental: as §1
All mouse serum samples were analyzed by a custom R&D systems Murine Premixed Multi- Analyte Kit (R&D Systems, Inc., Minneapolis, MN). The panel was run on a Luminex 200 Instrument (Luminex Corporation, Austin, TX) according to the manufacturer's instructions. Murine serum levels of Angiopoietin-2, BAFF/BLyS/TNFSF13B, CCL2/JE/MCP-1, CCL3/MIP-1 alpha, CCL4/MIP-1 beta, CCL5/RANTES, CCL7/MCP-3/MARC, CCL11/Eotaxin, CCL12/MCP-5, CCL20/MIP-3 alpha, CCL21/6Ckine, CCL22/MDC, Chitinase 3-like 1, CXCL1/GRO alpha/KC/CINC-1, CXCL10/IP-10/CRG-2, CXCL12/S DF- 1 alpha, Dkk-1, FGF basic/FGF2/bFGF, GDF-15, GM-CSF, Granzyme B, IFN-gamma, IGF-I/IGF-1, IL-1 alpha/IL-1F1, IL-1 beta/IL-1F2, IL-2, IL-3, IL-4, IL-6, IL-7, IL-10, IL-13, IL-16, IL-17/IL-17A, IL-27, IL-33 M-CSF, MMP-3, MMP-8, MMP-12, Prolactin, TWEAK/TNFSF12, VEGF, and VEGFR2/KDR/Flk-1 were measured. Analyte values were reported in picograms per milliliter (pg/mL). […] Latent TGF-β was activated in samples using 1 N HCl and samples were neutralized with 1.2 N NaOH/0.5 M HEPES. Samples were assayed immediately after neutralization.

[1] = test system: lung tissue in irradiated C57B1/6 mice; assay: Immunohistochemistry of irradiated lung tissue; type: in vivo, mouse
Text: Paraffin embedded sections of tissue were deparaffinized in xylene and rehydrated through graded ethanol solutions to phosphate-buffered saline (PBS). Heat-induced antigen retrieval (in 0.01 M citrate buffer; pH 6.0), endogenous peroxidase blocking (3% H202), and blocking were done using a standard protocol. […] Slides were developed with diaminobenzidine substrate (Vector Laboratories SK-4100) and counterstained with hematoxylin (Richard Allen Scientific). Slides were scanned (Olympus VS200) and representative brightfield images were taken and analyzed with OlyVIA software.

duodenum, liver or heart = assay: H&E of duodenum, liver and heart of irradiated, treated mice; settings: 20 Gy irradiated mice, 2 weeks treatment
Experimental: as §1, with “In order to determine the lethal dose of radiation for C57B1/6 mice, female C57B1/6 mice were treated with a single dose of whole-thorax irradiation of 25 Gy in a survival study where they were treated with either TLY012 or remained control (n=6/treatment) (FIG. 3C).” left out

[2] = test system: e0771 orthotopic breast tumors in C57B1/6 mice; assay: Orthotopic e0771 breast tumor model with 20 Gy whole-thorax irradiation
Experimental: C57B1/6 female mice (Taconic) were injected with 100,000 cells of murine breast cancer (e0771) in the right second mammary fat pad on day 0 of the experiment. […] Each group (n=3) also received a single whole-thorax x-ray irradiation dose of 20 Gy with shielding of other organs. One group (n=3) received no treatment and no radiation. The long axis and short axis of the tumors were measured using calipers and recorded twice a week. On day 18 all mice were euthanized at a humane endpoint, which was defined by 20% weight loss and/or a tumor volume of 2000 mm^3 (˜10% of body weight). Organs and tumors were harvested from the mice and 600 μL of blood was collected via cardiac puncture for serum cytokine analysis. Once tumors were extracted, they were weighed and measured to determine final volume and weight. Pulse oximeter readings were taken initially before radiation treatment and before sacrifice 9 days post-radiation (MouseSTAT Jr. Pulse Oximeter, Kent Scientific). When mice were under anesthesia the sensor of the MouseSTAT Jr. was placed on the hind right paw for 30 seconds. The highest and lowest values shown by the pulse oximeter during this time were recorded and then averaged together. The mean of all the averages per treatment group was then calculated.

[3] = irradiated rescued versus irradiated control lung tissues
[4] = normal or inflamed lung, treated versus irradiated control

Q: Which results are given for `Cc1ccccc1CN1C(=O)C2=C(CCN(Cc3ccccc3)C2)N2CCN=C12` [ONC201, reference compound]?
A: protection from pneumonitis (C57B1/6 mice; WT mice, 20 Gy thoracic irradiation, preliminary experiment, 2 weeks treatment, versus irradiated control, FIG. 1C): qualitative evidence of protection from pneumonitis; rescue from radiation-induced pneumonitis (C57B1/6 mice; irradiated C57B1/6 mice, FIG. 2): could rescue mice from radiation-induced pneumonitis; rescue from radiation pneumonitis (TRAIL-/- mice): did not; FGF basic serum level (serum cytokines): increase; IGF1 serum level (serum cytokines): upregulated; NFkB [1, 3]: no differences; proliferation [1, 3]: no differences; DNA double strand break marker gamma-H2AX [1, 4]: no difference; T-cell infiltration (CD3-epsilon) [1, 4]: no difference; collagen in lungs ([1]; rescued lungs versus irradiated control): less collagen; toxicities in duodenum, liver or heart (duodenum, liver or heart): No obvious toxicities; effect on anti-tumor efficacy of radiation (tumor weight and volume) ([2]; 20 Gy on day 9, treatment days 9, 12, 16, sacrifice day 18, FIG. 6B, C): no evidence that ONC201, TLY012 or their combination reduced efficacy of treatment; oxygen saturation (pulse oximetry) ([2]; 9 days post-radiation, versus irradiated mice without further treatment, FIG. 6D): partially rescued; rescue from radiation induced pneumonitis ([2]; tumor-bearing mice, 20 Gy): more potent by TLY012 than with ONC201
